ChEMBL document CHEMBL1201862, “PubChem BioAssay data set” (2004)
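Assay format: 96-well plates, 48-hour exposure. GI50: concentration for 50% inhibition of growth.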 Calls of active or inactive are those of the source. No stated cut-off is given here; in the data, active = GI50 up to about 1.1 µM and inactive = higher.

How the values were obtained:
Assay in all cases: NCI anticancer screen, dose series, 48 h
[1] = tested on: SNB-19
[2] = tested on: HCC 2998
[3] = tested on: HCT-116
[4] = tested on: NCI-H23
[5] = tested on: IGROV-1
[6] = tested on: A549
[7] = tested on: M14
[8] = tested on: HOP-62
[9] = tested on: RPMI-8226
[10] = tested on: EKVX
[11] = tested on: OVCAR-3
[12] = tested on: SNB-75
[13] = tested on: CAKI-1
[14] = tested on: SK-OV-3
[15] = tested on: K562
[16] = tested on: MOLT-4
[17] = tested on: SN12C
[18] = tested on: LOX IMVI
[19] = tested on: RXF 393
[20] = tested on: SF-295

Row | SMILES | GI50 [1] | GI50 [2] | GI50 [3] | GI50 [4] | GI50 [5] | GI50 [6] | GI50 [7] | GI50 [8] | GI50 [9] | GI50 [10] | GI50 [11] | GI50 [12] | GI50 [13] | GI50 [14] | GI50 [15] | GI50 [16] | GI50 [17] | GI50 [18] | GI50 [19] | GI50 [20]
1 | O=C(Nc1nnc(S)[nH]1)C(=O)C(c1cnc2ccc([N+](=O)[O-])cc2n1)[N+](=O)[O-] (stereo not given) | > 100 µM (inactive) | > 100 µM (inactive) | > 100 µM (inactive) | > 100 µM (inactive) | > 100 µM (inactive) | > 100 µM (inactive) | > 100 µM (inactive) | > 100 µM (inactive) | 89.7 µM (inactive) | > 100 µM (inactive) | > 100 µM (inactive) | > 100 µM (inactive) | > 100 µM (inactive) | > 100 µM (inactive) | > 100 µM (inactive) | > 100 µM (inactive) | > 100 µM (inactive) | > 100 µM (inactive) | > 100 µM (inactive) | > 100 µM (inactive)
2 | COC(=O)c1nc(N)nc(O)c1-c1ccc(Cl)cc1 | > 100 µM (inactive) | > 100 µM (inactive) | > 100 µM (inactive) | > 100 µM (inactive) | > 100 µM (inactive) | > 100 µM (inactive) | > 100 µM (inactive) | > 100 µM (inactive) | > 100 µM (inactive) | > 100 µM (inactive) | > 100 µM (inactive) | > 100 µM (inactive) | > 100 µM (inactive) | > 100 µM (inactive) | > 100 µM (inactive) | > 100 µM (inactive) | > 100 µM (inactive) | > 100 µM (inactive) | > 100 µM (inactive) | > 100 µM (inactive)
3 | COc1cccc2cc(C(=O)Nc3ccccn3)c(=N)oc12 | > 100 µM (inactive) | > 100 µM (inactive) | 83.2 µM (inactive) | 52.5 µM (inactive) | > 100 µM (inactive) | > 100 µM (inactive) | 72.8 µM (inactive) | 82.8 µM (inactive) | 75.7 µM (inactive) | > 100 µM (inactive) | 23.7 µM (inactive) | 59.2 µM (inactive) | > 100 µM (inactive) | 85.3 µM (inactive) | 39.4 µM (inactive) | 0.501 µM (active) | > 100 µM (inactive) | > 100 µM (inactive) | 49 µM (inactive) | > 100 µM (inactive)
4 | Nc1ccc2c3[nH]c4cc(N)ccc4cc-3nc2c1 | 0.209 µM (active) | 0.09 µM (active) | 0.0582 µM (active) | 0.202 µM (active) | 2.16 µM (inactive) | 0.286 µM (active) | 0.344 µM (active) | 0.117 µM (active) | 0.414 µM (active) | 0.267 µM (active) | 0.349 µM (active) | 0.12 µM (active) | 0.203 µM (active) | 0.314 µM (active) | 5.07 µM (inactive) | 0.0789 µM (active) | 0.138 µM (active) | 0.199 µM (active) | 0.32 µM (active) | 0.265 µM (active)
5 | O=c1c2cc(Cl)ccc2n2nnc3ccc(NCCNCCO)c1c32 | 1.5 µM (inactive) | 1.37 µM (inactive) | 0.419 µM (active) | 1.36 µM (inactive) | 2.11 µM (inactive) | 0.719 µM (active) | 1.38 µM (inactive) | 1.41 µM (inactive) | 1.53 µM (inactive) | 1.93 µM (inactive) | 1.59 µM (inactive) | 0.0753 µM (active) | 1.83 µM (inactive) | 2.67 µM (inactive) | 0.589 µM (active) | 0.394 µM (active) | 0.731 µM (active) | 0.583 µM (active) | 1.79 µM (inactive) | 0.689 µM (active)
6 | Brc1ccc2[nH]cc(-c3csc(-c4c[nH]c5ccc(Br)cc45)n3)c2c1 | 2.88 µM (inactive) | 1.86 µM (inactive) | 1.68 µM (inactive) | 2.27 µM (inactive) | 1.58 µM (inactive) | 2.69 µM (inactive) | 1.53 µM (inactive) | 3.25 µM (inactive) | 1.64 µM (inactive) | 1.48 µM (inactive) | 2.45 µM (inactive) | 2.39 µM (inactive) | 1.95 µM (inactive) | 2.5 µM (inactive) | 1.77 µM (inactive) | 1.63 µM (inactive) | 2.83 µM (inactive) | 1.69 µM (inactive) | 2.14 µM (inactive) | 2.48 µM (inactive)
